Reference: patent US7811352B2, “Fertilizer compositions and methods of using” (priority 2005, dated 2010)

Assays:
Bermuda grass [1] = assay: Turfgrass quality and color ratings, Bermuda grass fairway (Example 10); format: in vivo; details: scale 1-10
Description: (§1) In this Example, the effect of a fertilizer comprising lysine on warm season turfgrass growth was examined. The effects of lysine (HCl) and LIQUID LYSINE on a common type of golf course fairway quality turfgrass (Bermuda grass) were compared with those of urea and Milorganite.
(§2) Fifteen fertilizer treatments comprising three concentrations of each fertilizer composition (Milorganite (N—P—K, 6-2-0), urea (N—P—K, 46-0-0), LIQUID LYSINE (N—P—K, 10-2-1), and both granular and aqueous lysine (HCl) (N—P—K, 15-2-1)) were prepared and applied to 4 replications of Bermuda grass. The aqueous lysine (HCl) was dissolved in water prior to application. Each fertilizer treatment was applied in concentrations of 0.5 lb N/1000 ft^2/month, 1.0 lb N/1000 ft^2/month and 3.0 lb N/1000 ft^2/month. The urea, LIQUID LYSINE and aqueous lysine (HCl) were applied as foliar liquids, while Milorganite and granular lysine (HCl) were applied as granular fertilizers Plot size was 1 m×2 m set up as a randomized complete block. Plots were mowed at 0.5 inches before fertilizer application. Irrigation (0.15 inch) was applied following application. Plots were rated for turfgrass quality and color (scale of 1-10 where 10=dark green turf, 1=dead/brown turf, and 6=minimally acceptable turf) and phytotoxicity (scale of 0-5, where 5=worst, and 2=minimally objectionable) throughout the study period. Quality, color, and phytotoxicity were measured on 2 days before application (day −2) and day 2, day 5, day 15 and day 21 after application. All data was subject to statistical analysis and significant means were determined. Average turfgrass quality ratings for the treatments are presented in Table 9 and the quality results for application rates of 1.0 lb N/1000 ft^2/month are graphically presented in FIG. 4.

Bermuda grass [2] = assay: Phytotoxicity rating, Bermuda grass fairway (Example 10); format: in vivo; details: scale 0-5, 5=worst
Description: as §1, §2

[3] = Monthly Rate 0.5 lbs N/1000 ft^2, Day 2
[4] = Monthly Rate 0.5 lbs N/1000 ft^2, Day 2, (HCl)
[5] = Monthly Rate 0.5 lbs N/1000 ft^2, Day 5, (HCl)
[6] = Monthly Rate 0.5 lbs N/1000 ft^2, Day 15, (HCl)
[7] = Monthly Rate 0.5 lbs N/1000 ft^2, Day 21, (HCl)
[8] = Monthly Rate 0.5 lbs N/1000 ft^2, Day −2 (before application)
[9] = Monthly Rate 0.5 lbs N/1000 ft^2, Day −2 (before application), (HCl)
[10] = Monthly Rate 1.0 lbs N/1000 ft^2, Day 2, (HCl)
[11] = Monthly Rate 1.0 lbs N/1000 ft^2, Day 5, (HCl)
[12] = Monthly Rate 1.0 lbs N/1000 ft^2, Day 15
[13] = Monthly Rate 1.0 lbs N/1000 ft^2, Day 15, (HCl)
[14] = Monthly Rate 1.0 lbs N/1000 ft^2, Day 21, (HCl)
[15] = Monthly Rate 1.0 lbs N/1000 ft^2, Day −2 (before application), (HCl)
[16] = Monthly Rate 3.0 lbs N/1000 ft^2, Day 2
[17] = Monthly Rate 3.0 lbs N/1000 ft^2, Day 5
[18] = Monthly Rate 3.0 lbs N/1000 ft^2, Day 5, (HCl)
[19] = Monthly Rate 3.0 lbs N/1000 ft^2, Day 15, (HCl)
[20] = Monthly Rate 3.0 lbs N/1000 ft^2, Day 21, (HCl)
[21] = Monthly Rate 3.0 lbs N/1000 ft^2, Day −2 (before application), (HCl)
[22] = Monthly Rate 0.5 lbs N/1000 ft^2, Day 5
[23] = Monthly Rate 0.5 lbs N/1000 ft^2, Day 15
[24] = Monthly Rate 0.5 lbs N/1000 ft^2, Day 21
[25] = Monthly Rate 1.0 lbs N/1000 ft^2, Day 2
[26] = Monthly Rate 1.0 lbs N/1000 ft^2, Day 5
[27] = Monthly Rate 1.0 lbs N/1000 ft^2, Day 21
[28] = Monthly Rate 1.0 lbs N/1000 ft^2, Day −2 (before application)
[29] = Monthly Rate 3.0 lbs N/1000 ft^2, Day 2, (HCl)
[30] = Monthly Rate 3.0 lbs N/1000 ft^2, Day 15
[31] = Monthly Rate 3.0 lbs N/1000 ft^2, Day 21
[32] = Monthly Rate 3.0 lbs N/1000 ft^2, Day −2 (before application)

## Cl.NCCCC[C@H](N)C(=O)O [Lys (HCl) 15% N (aq), lysine (HCl)]
Bermuda grass [1]; [3]
  Quality Ratings - Bermuda Grass: 7.3b
Bermuda grass [1]; [4]
  Color Ratings - Bermuda Grass: 7.3
Bermuda grass [1]; [5]
  Color Ratings - Bermuda Grass: 7.8 g·days
  Quality Ratings - Bermuda Grass: 7.1 days
Bermuda grass [1]; [6]
  Color Ratings - Bermuda Grass: 7.6cde
  Quality Ratings - Bermuda Grass: 7.8de
Bermuda grass [1]; [7]
  Color Ratings - Bermuda Grass: 8.0bc
  Quality Ratings - Bermuda Grass: 8.0cde
Bermuda grass [1]; [8]
  Color Ratings - Bermuda Grass: 6.5
Bermuda grass [1]; [9]
  Quality Ratings - Bermuda Grass: 6.3
Bermuda grass [1]; [10]
  Color Ratings - Bermuda Grass: 7.3
  Quality Ratings - Bermuda Grass: 7.0b
Bermuda grass [1]; [11]
  Color Ratings - Bermuda Grass: 8.1cde
  Quality Ratings - Bermuda Grass: 7.8bcd
Bermuda grass [1]; [12]
  Color Ratings - Bermuda Grass: 7.8cd
Bermuda grass [1]; [13]
  Quality Ratings - Bermuda Grass: 7.9de
Bermuda grass [1]; [14]
  Color Ratings - Bermuda Grass: 8.0bc
  Quality Ratings - Bermuda Grass: 8.0cde
Bermuda grass [1]; [15]
  Color Ratings - Bermuda Grass: 6.5
  Quality Ratings - Bermuda Grass: 6.4
Bermuda grass [1]; [16]
  Color Ratings - Bermuda Grass: 7.3
  Quality Ratings - Bermuda Grass: 7.4b
Bermuda grass [1]; [17]
  Color Ratings - Bermuda Grass: 9.0a
Bermuda grass [1]; [18]
  Quality Ratings - Bermuda Grass: 8.3ab
Bermuda grass [1]; [19]
  Color Ratings - Bermuda Grass: 8.3ab
  Quality Ratings - Bermuda Grass: 8.8b
Bermuda grass [1]; [20]
  Color Ratings - Bermuda Grass: 8.8a
  Quality Ratings - Bermuda Grass: 8.5ab
Bermuda grass [1]; [21]
  Color Ratings - Bermuda Grass: 6.1
  Quality Ratings - Bermuda Grass: 6.0
Bermuda grass [2]; [3]
  Phytotoxicity - Bermuda Grass: 0.0b
Bermuda grass [2]; [22]
  Phytotoxicity - Bermuda Grass: 0
Bermuda grass [2]; [23]
  Phytotoxicity - Bermuda Grass: 0
Bermuda grass [2]; [24]
  Phytotoxicity - Bermuda Grass: 0
Bermuda grass [2]; [8]
  Phytotoxicity - Bermuda Grass: 0
Bermuda grass [2]; [25]
  Phytotoxicity - Bermuda Grass: 0.0b
Bermuda grass [2]; [26]
  Phytotoxicity - Bermuda Grass: 0
Bermuda grass [2]; [12]
  Phytotoxicity - Bermuda Grass: 0
Bermuda grass [2]; [27]
  Phytotoxicity - Bermuda Grass: 0
Bermuda grass [2]; [28]
  Phytotoxicity - Bermuda Grass: 0
Bermuda grass [2]; [29]
  Phytotoxicity - Bermuda Grass: 0.3ab
Bermuda grass [2]; [17]
  Phytotoxicity - Bermuda Grass: 0
Bermuda grass [2]; [30]
  Phytotoxicity - Bermuda Grass: 0
Bermuda grass [2]; [31]
  Phytotoxicity - Bermuda Grass: 0
Bermuda grass [2]; [32]
  Phytotoxicity - Bermuda Grass: 0

## Cl.NCCCC[C@H](N)C(=O)O [Lys (HCl) 15% N (gran), lysine (HCl)]
Bermuda grass [1]; [3]
  Quality Ratings - Bermuda Grass: 7.3b
Bermuda grass [1]; [4]
  Color Ratings - Bermuda Grass: 7.5
Bermuda grass [1]; [5]
  Color Ratings - Bermuda Grass: 8.0def
  Quality Ratings - Bermuda Grass: 7.6bcd
Bermuda grass [1]; [6]
  Color Ratings - Bermuda Grass: 7.1e
  Quality Ratings - Bermuda Grass: 7.4e
Bermuda grass [1]; [7]
  Color Ratings - Bermuda Grass: 8.3b
  Quality Ratings - Bermuda Grass: 7.9def
Bermuda grass [1]; [8]
  Color Ratings - Bermuda Grass: 6.5
Bermuda grass [1]; [9]
  Quality Ratings - Bermuda Grass: 6.5
Bermuda grass [1]; [10]
  Color Ratings - Bermuda Grass: 7.9
  Quality Ratings - Bermuda Grass: 7.6ab
Bermuda grass [1]; [11]
  Color Ratings - Bermuda Grass: 8.3bcd
  Quality Ratings - Bermuda Grass: 7.9abc
Bermuda grass [1]; [12]
  Color Ratings - Bermuda Grass: 7.8cd
Bermuda grass [1]; [13]
  Quality Ratings - Bermuda Grass: 8.1cd
Bermuda grass [1]; [14]
  Color Ratings - Bermuda Grass: 8.3b
  Quality Ratings - Bermuda Grass: 8.1bcd
Bermuda grass [1]; [15]
  Color Ratings - Bermuda Grass: 6.4
  Quality Ratings - Bermuda Grass: 6.3
Bermuda grass [1]; [16]
  Color Ratings - Bermuda Grass: 7.3
  Quality Ratings - Bermuda Grass: 7.4b
Bermuda grass [1]; [17]
  Color Ratings - Bermuda Grass: 9.0a
Bermuda grass [1]; [18]
  Quality Ratings - Bermuda Grass: 8.5a
Bermuda grass [1]; [19]
  Color Ratings - Bermuda Grass: 8.6a
  Quality Ratings - Bermuda Grass: 9.4a
Bermuda grass [1]; [20]
  Color Ratings - Bermuda Grass: 8.9a
  Quality Ratings - Bermuda Grass: 8.6a
Bermuda grass [1]; [21]
  Color Ratings - Bermuda Grass: 6.4
  Quality Ratings - Bermuda Grass: 6.1
Bermuda grass [2]; [3]
  Phytotoxicity - Bermuda Grass: 0.0b
Bermuda grass [2]; [22]
  Phytotoxicity - Bermuda Grass: 0
Bermuda grass [2]; [23]
  Phytotoxicity - Bermuda Grass: 0
Bermuda grass [2]; [24]
  Phytotoxicity - Bermuda Grass: 0
Bermuda grass [2]; [8]
  Phytotoxicity - Bermuda Grass: 0
Bermuda grass [2]; [25]
  Phytotoxicity - Bermuda Grass: 0.0b
Bermuda grass [2]; [26]
  Phytotoxicity - Bermuda Grass: 0
Bermuda grass [2]; [12]
  Phytotoxicity - Bermuda Grass: 0
Bermuda grass [2]; [27]
  Phytotoxicity - Bermuda Grass: 0
Bermuda grass [2]; [28]
  Phytotoxicity - Bermuda Grass: 0
Bermuda grass [2]; [29]
  Phytotoxicity - Bermuda Grass: 0.5a
Bermuda grass [2]; [17]
  Phytotoxicity - Bermuda Grass: 0
Bermuda grass [2]; [30]
  Phytotoxicity - Bermuda Grass: 0
Bermuda grass [2]; [31]
  Phytotoxicity - Bermuda Grass: 0
Bermuda grass [2]; [32]
  Phytotoxicity - Bermuda Grass: 0
